Where two headings read alike, the source gives them in different places.
Tests used:
[1] = system: MDA435/LCC6 MDR1 cells; experiment: Sulforhodamine B cytotoxicity / MDR reversal assay, ABCB1-transfected cells; type: cell-based, human; settings: for IC50: Homo sapiens
[2] = system: MDA435/LCC6 cells; experiment: Sulforhodamine B cytotoxicity assay, parental cells; type: cell-based; settings: Homo sapiens
[3] = Pharmacokinetic study of paclitaxel with oral type I POPs; type: in vivo, Sprague–Dawley rats
[4] = compound at 0.4 μmol/L, MDA435/LCC6 MDR1
[5] = Sprague-Dawley, rat, plasma, iv, 6 mg/kg

In the case of `COc1cccc2c1C(=O)c1c(O)c3c(c(O)c1C2=O)C[C@@](O)(C(=O)CO)C[C@@H]3O[C@H]1C[C@H](N)[C@H](O)[C@H](C)O1` [Doxorubicin, doxorubicin], the IC50 ([1]; read-out: IC50 of doxorubicin) is reported as 695 ± 40 nM and the IC50 ([2]; MDA-435/LCC6, read-out: IC50 of doxorubicin) is reported as 76 ± 8 nM.

With `C/C=C/C[C@@H](C)C(=O)[C@H]1C(=O)N[C@@H](C(C)C)C(=O)N(C)CC(=O)N(C)[C@@H](CC(C)C)C(=O)N[C@@H](C(C)C)C(=O)N(C)[C@@H](CC(C)C)C(=O)N[C@@H](C)C(=O)N[C@H](C)C(=O)N(C)[C@@H](CC(C)C)C(=O)N(C)[C@@H](CC(C)C)C(=O)N(C)[C@@H](C(C)C)C(=O)N1C` [PSC833, valspodar] the “Fold change of doxorubicin IC50 (alone/combination)” value [1, 4] was 11 and the “Fold change of paclitaxel IC50 (alone/combination)” value [1, 4] was 59.

In the case of `CC(=O)O[C@H]1C(=O)[C@@]2(C)[C@H]([C@H](OC(=O)c3ccccc3)[C@]3(O)C[C@H](OC(=O)[C@H](O)[C@@H](NC(=O)c4ccccc4)c4ccccc4)C(C)=C1C3(C)C)[C@]1(OC(C)=O)CO[C@@H]1C[C@@H]2O` [Paclitaxel, paclitaxel], the IC50 ([1]; read-out: IC50 of paclitaxel) is reported as 120 ± 9.44 nM, the “behavior and body weight of rats” value ([3]; 6 consecutive days of paclitaxel alone or with type I POPs mixture) is reported as “no abnormality in behavior and no significant weight losses” and the “brain accumulation of paclitaxel” value ([3]; 24 h after last dose, 6 consecutive days) is reported as “no brain accumulation of paclitaxel”. The half-life ([3]; Sprague-Dawley, rat, plasma, intravenous) was 4.2 ± 0.3 h, the clearance [3, 5] was 91.7 mL/min/kg and the half-life [3, 5] was 3.2 ± 0.7 h. For the same compound, the “Ctrough of paclitaxel after the last dose” value ([3]; paclitaxel iv 6 mg/kg/day ± type I POPs po 50 mg/kg/day for 6 consecutive days) was 15.8 ± 6.6 nM and the IC50 ([2]; MDA-435/LCC6, read-out: IC50 of paclitaxel) was 1.36 ± 0.14 nM.

Reference: article PMC8343194 (Acta Pharmaceutica Sinica. B, 2021)
